From ChEMBL document CHEMBL4382243, “The synthesis of 4-arylamido-2-arylaminoprimidines as potent EGFR T790M/L858R inhibitors for NSCLC” (Bioorg Med Chem, 2018)
The source made the active and inactive calls. No cut-off for these calls is given here.

How the values were obtained:
[1] = test system: A-431; test: cells; assay type: ADME, cell-based; conditions: Homo sapiens, A-431, 72 h;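 note: growth inhibition of A-431 cells expressing wild-type EGFR, read out by MTT assay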
Description: Antiproliferative activity against human A431 cells harboring wild-type EGFR after 72 hrs by MTT assay

[2] = test system: NCI-H1975; test: Antiproliferative activity against human NCI-H1975 cells harboring EGFR T790M/L858R double mutant after 72 hrs by MTT assay; assay type: functional, cell-based; conditions: NCI-H1975, 72 h
[3] = target: Epidermal growth factor receptor (Homo sapiens, UniProt P00533); assay type: ADME, cell-based, Sf9
Description: Inhibition of wild-type human N-terminal GST-tagged EGFR (695 to end residues) expressed in baculovirus infected Sf9 insect cells using Poly (4:1 Glu, Tyr) as substrate after 60 mins in presence of ATP by ADP-Glo assay

[4] = target: Epidermal growth factor receptor (Homo sapiens, UniProt P00533, L858R/T790M); assay type: cell-based, Sf9
[5] = test system: ASPC1; test: cells; assay type: functional, cell-based; conditions: Homo sapiens, ASPC1, 72 h;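 note: growth inhibition of the cells quantified with an MTT readout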
Description: Antiproliferative activity against human Aspc-1 cells after 72 hrs by MTT assay

[6] = test system: NCI-H23; test: Antiproliferative activity against human NCI-H23 cells after 72 hrs by MTT assay; assay type: functional, cell-based; conditions: NCI-H23, 72 h
[7] = test system: A549; test: cells; assay type: functional, cell-based; conditions: Homo sapiens, A549, 72 h
Description: Antiproliferative activity against human A549 cells after 72 hrs by MTT assay

[8] = cells; assay type: ADME, cell-based; conditions: Homo sapiens, NHBE, 72 h
Description: Antiproliferative activity against NHBE cells after 72 hrs by MTT assay

[9] = test system: NCI-H1975; test: Antiproliferative activity against human NCI-H1975 cells harboring EGFR T790M/L858R double mutant assessed as cell viability at 1 uM after 24 hrs by MTT assay (reference value: 98.3%); assay type: functional; conditions: for viability at 1 µM: Homo sapiens, NCI-H1975, 24 h, read-out: Activity
[10] = test system: NCI-H1975; test: Antiproliferative activity against human NCI-H1975 cells harboring EGFR T790M/L858R double mutant assessed as cell viability at 1 uM after 48 hrs by MTT assay (reference value: 98.3%); assay type: functional; conditions: for viability at 1 µM: Homo sapiens, NCI-H1975, 48 h, read-out: Activity
[11] = test system: NCI-H1975; test: Antiproliferative activity against human NCI-H1975 cells harboring EGFR T790M/L858R double mutant assessed as cell viability at 0.1 uM after 24 hrs by MTT assay (reference value: 98.3%); assay type: functional; conditions: for viability at 0.1 µM: Homo sapiens, NCI-H1975, 24 h, read-out: Activity
[12] = test system: NCI-H1975; test: Antiproliferative activity against human NCI-H1975 cells harboring EGFR T790M/L858R double mutant assessed as cell viability at 0.1 uM after 72 hrs by MTT assay (reference value: 98.3%); assay type: functional; conditions: for viability at 0.1 µM: Homo sapiens, NCI-H1975, 72 h, read-out: Activity
[13] = test system: NCI-H1975; test: Antiproliferative activity against human NCI-H1975 cells harboring EGFR T790M/L858R double mutant assessed as cell viability at 1 uM after 72 hrs by MTT assay (reference value: 98.3%); assay type: functional; conditions: for viability at 1 µM: Homo sapiens, NCI-H1975, 72 h, read-out: Activity
[14] = test system: NCI-H1975; test: Antiproliferative activity against human NCI-H1975 cells harboring EGFR T790M/L858R double mutant assessed as cell viability at 0.1 uM after 48 hrs by MTT assay (reference value: 98.3%); assay type: functional; conditions: for viability at 0.1 µM: Homo sapiens, NCI-H1975, 48 h, read-out: Activity
[15] = test system: NCI-H1975; test: Antiproliferative activity against human NCI-H1975 cells harboring EGFR T790M/L858R double mutant assessed as cell viability at 10 uM after 48 hrs by MTT assay (reference value: 98.3%); assay type: functional; conditions: for viability at 10 µM: Homo sapiens, NCI-H1975, 48 h, read-out: Activity
[16] = test system: NCI-H1975; test: Antiproliferative activity against human NCI-H1975 cells harboring EGFR T790M/L858R double mutant assessed as cell viability at 10 uM after 72 hrs by MTT assay (reference value: 98.3%); assay type: functional; conditions: for viability at 10 µM: Homo sapiens, NCI-H1975, 72 h, read-out: Activity
[17] = test system: NCI-H1975; test: Antiproliferative activity against human NCI-H1975 cells harboring EGFR T790M/L858R double mutant assessed as cell viability at 10 uM after 24 hrs by MTT assay (reference value: 98.3%); assay type: functional; conditions: for viability at 10 µM: Homo sapiens, NCI-H1975, 24 h, read-out: Activity
[18] = test system: NCI-H1975; test: Antimigratory activity against human NCI-H1975 cells at 5 to 10 uM up to 48 hrs by wound healing assay; assay type: functional, cell-based
[19] = test system: NCI-H1975; test: Antiproliferative activity against human NCI-H1975 cells harboring EGFR T790M/L858R double mutant at 1 to 20 uM after 72 hrs by acridine orange/ethidium bromide staining based fluorescent microscopic analysis; assay type: functional, cell-based
[20] = test system: NCI-H1975; test: Induction of apoptosis in human NCI-H1975 cells harboring EGFR T790M/L858R double mutant assessed as nuclear condensation at 1 to 20 uM after 72 hrs by DAPI staining based fluorescent microscopic analysis; assay type: functional, cell-based
[21] = test system: NCI-H1975; test: Induction of apoptosis in human NCI-H1975 cells harboring EGFR T790M/L858R double mutant assessed as membrane blebbing at 1 to 20 uM after 72 hrs by DAPI staining based fluorescent microscopic analysis; assay type: functional, cell-based
[22] = test system: NCI-H1975; test: Induction of apoptosis in human NCI-H1975 cells harboring EGFR T790M/L858R double mutant assessed as apoptotic body formation at 1 to 20 uM after 72 hrs by DAPI staining based fluorescent microscopic analysis; assay type: functional, cell-based

Chain of Epidermal growth factor receptor (Homo sapiens, UniProt P00533) (P00533 whole entry): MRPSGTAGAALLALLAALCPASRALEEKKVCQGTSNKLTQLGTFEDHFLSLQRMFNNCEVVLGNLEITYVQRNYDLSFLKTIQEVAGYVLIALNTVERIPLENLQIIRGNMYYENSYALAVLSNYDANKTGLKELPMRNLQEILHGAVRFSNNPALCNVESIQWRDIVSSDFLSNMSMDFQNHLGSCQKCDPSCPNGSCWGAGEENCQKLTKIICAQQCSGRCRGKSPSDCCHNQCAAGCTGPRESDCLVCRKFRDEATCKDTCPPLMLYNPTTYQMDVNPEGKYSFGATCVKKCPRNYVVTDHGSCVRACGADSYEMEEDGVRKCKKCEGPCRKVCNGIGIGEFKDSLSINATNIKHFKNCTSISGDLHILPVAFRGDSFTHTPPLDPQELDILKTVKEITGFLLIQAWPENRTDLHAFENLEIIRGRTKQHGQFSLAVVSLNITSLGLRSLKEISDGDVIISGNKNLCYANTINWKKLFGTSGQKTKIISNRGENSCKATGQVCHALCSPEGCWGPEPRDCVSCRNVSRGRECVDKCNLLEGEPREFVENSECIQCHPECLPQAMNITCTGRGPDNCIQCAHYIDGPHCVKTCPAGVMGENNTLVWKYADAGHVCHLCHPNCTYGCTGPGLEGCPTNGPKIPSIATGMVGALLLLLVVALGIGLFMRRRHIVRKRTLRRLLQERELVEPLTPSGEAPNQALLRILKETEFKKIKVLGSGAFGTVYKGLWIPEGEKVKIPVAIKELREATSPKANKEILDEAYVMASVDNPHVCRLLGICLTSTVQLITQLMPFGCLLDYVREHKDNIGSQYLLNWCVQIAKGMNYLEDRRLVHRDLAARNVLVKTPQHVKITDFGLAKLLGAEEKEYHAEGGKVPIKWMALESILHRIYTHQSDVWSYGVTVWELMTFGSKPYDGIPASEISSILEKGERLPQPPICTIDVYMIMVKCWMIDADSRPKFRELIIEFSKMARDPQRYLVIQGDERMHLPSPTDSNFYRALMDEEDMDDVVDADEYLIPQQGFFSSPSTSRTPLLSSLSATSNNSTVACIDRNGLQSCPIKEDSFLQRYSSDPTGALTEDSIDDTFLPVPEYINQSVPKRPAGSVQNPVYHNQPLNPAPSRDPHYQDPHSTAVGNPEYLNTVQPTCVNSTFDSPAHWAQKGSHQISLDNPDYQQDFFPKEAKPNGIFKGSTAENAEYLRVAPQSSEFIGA
Chain of Epidermal growth factor receptor (Homo sapiens, UniProt P00533, L858R/T790M) (P00533 25-1210 T790M/L858R limits assumed): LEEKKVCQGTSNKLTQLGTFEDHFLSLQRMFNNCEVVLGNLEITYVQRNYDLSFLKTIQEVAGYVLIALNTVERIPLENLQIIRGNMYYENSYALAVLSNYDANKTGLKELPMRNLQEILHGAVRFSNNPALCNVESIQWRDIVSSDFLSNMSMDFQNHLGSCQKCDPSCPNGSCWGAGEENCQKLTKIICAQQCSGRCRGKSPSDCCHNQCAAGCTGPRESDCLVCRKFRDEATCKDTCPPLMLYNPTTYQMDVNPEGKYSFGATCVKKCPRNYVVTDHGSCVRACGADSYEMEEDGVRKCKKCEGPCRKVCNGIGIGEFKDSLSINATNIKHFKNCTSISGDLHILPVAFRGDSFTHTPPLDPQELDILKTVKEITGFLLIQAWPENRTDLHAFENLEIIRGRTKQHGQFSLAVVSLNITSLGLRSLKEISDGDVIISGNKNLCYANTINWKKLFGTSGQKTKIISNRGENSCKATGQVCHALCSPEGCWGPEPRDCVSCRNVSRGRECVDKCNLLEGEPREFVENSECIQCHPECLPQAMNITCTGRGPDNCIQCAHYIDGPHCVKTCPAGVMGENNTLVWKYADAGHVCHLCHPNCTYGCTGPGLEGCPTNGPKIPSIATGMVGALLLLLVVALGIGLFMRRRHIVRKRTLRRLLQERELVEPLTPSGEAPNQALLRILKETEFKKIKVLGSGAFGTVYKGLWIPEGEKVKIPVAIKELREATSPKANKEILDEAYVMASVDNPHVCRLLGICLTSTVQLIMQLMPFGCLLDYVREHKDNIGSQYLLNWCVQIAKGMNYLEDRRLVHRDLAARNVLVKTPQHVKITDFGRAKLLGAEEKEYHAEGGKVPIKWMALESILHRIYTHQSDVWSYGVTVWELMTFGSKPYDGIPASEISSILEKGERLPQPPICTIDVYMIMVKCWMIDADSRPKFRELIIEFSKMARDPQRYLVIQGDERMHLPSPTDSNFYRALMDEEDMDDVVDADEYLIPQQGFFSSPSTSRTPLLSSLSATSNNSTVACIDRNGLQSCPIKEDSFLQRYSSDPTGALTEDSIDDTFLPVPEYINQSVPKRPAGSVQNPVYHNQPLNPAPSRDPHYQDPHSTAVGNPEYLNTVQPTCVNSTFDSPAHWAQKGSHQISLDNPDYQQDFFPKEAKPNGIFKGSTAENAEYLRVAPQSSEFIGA

Structure (SMILES)	IC50 [1]	IC50 [2]	IC50 [3]	IC50 [4]	IC50 [5]	IC50 [6]	IC50 [7]	IC50 [8]	further results
C=CC(=O)Nc1cc(Nc2nccc(NC(=O)c3cccc(OC)c3)n2)c(OC)cc1N1CCC(C(N)=O)CC1	13.1 µM	11.5 µM	0.0505 µM	0.0326 µM					
C=CC(=O)Nc1cc(Nc2nccc(NC(=O)c3ccccc3)n2)c(OC)cc1N(C)C	> 20 µM	> 20 µM							
C=CC(=O)Nc1cc(Nc2nccc(NC(=O)c3ccc(OC)c(OC)c3)n2)c(OC)cc1N(C)CCN(C)C	6.55 µM	2.65 µM	0.187 µM	0.123 µM	3.32 µM	15.5 µM	3.95 µM	12.7 µM	
COc1cc2ncnc(Nc3ccc(F)c(Cl)c3)c2cc1OCCCN1CCOCC1 [GEFITINIB]									viability at 1 µM [9]: 90.6%; viability at 1 µM [10]: 84.3%; viability at 0.1 µM [11]: 97.6%; viability at 0.1 µM [12]: 89.9%; viability at 1 µM [13]: 63.2%; viability at 0.1 µM [14]: 93.5%; viability at 10 µM [15]: 32.7%; viability at 10 µM [16]: 18.7%; viability at 10 µM [17]: 48.7%
C=CC(=O)Nc1cc(Nc2nccc(NC(=O)c3ccc(OC)c(OC)c3)n2)c(OC)cc1N1CCN(C)CC1	11.7 µM	1.66 µM	0.157 µM	0.0126 µM	> 10 µM	> 16 µM	6.82 µM	27 µM	viability at 1 µM [9]: 85.4%; viability at 1 µM [10]: 74.8%; viability at 0.1 µM [11]: 93.8%; viability at 0.1 µM [12]: 90.2%; viability at 1 µM [13]: 52.8%; Activity [18]: Active; viability at 0.1 µM [14]: 91.6%; viability at 10 µM [15]: 11.8%; viability at 10 µM [16]: 5.8%; Activity [19]: Active; Activity [20]: Active; Activity [21]: Active; Activity [22]: Active; viability at 10 µM [17]: 41.4%
C=CC(=O)Nc1cc(Nc2nccc(NC(=O)c3cccc(OC)c3)n2)c(OC)cc1N(C)CCN(C)C	4.16 µM	1.16 µM	0.153 µM	0.059 µM	3.4 µM	11.8 µM	3 µM	12.3 µM	
C=CC(=O)Nc1cc(Nc2nccc(NC(=O)c3ccccc3)n2)c(OC)cc1N1CCN(C)CC1	3.94 µM	1.42 µM	0.156 µM	0.121 µM	> 10 µM	> 16 µM	5.97 µM	23.9 µM	
C=CC(=O)Nc1cc(Nc2nccc(-c3cn(C)c4ccccc34)n2)c(OC)cc1N(C)CCN(C)C [OSIMERTINIB]	[…]	[…]			3.98 µM		3.24 µM	> 40 µM	Activity [9]: 78.6%; Activity [10]: 59%; Activity [11]: 87.1%; Activity [12]: 77.2%; Activity [13]: 33.5%; Activity [14]: 83.6%; Activity [15]: 1.71%; Activity [16]: 1.42%; Activity [17]: 3.68%
C=CC(=O)Nc1cc(Nc2nccc(NC(=O)c3ccc(OC)c(OC)c3)n2)c(OC)cc1N1CCC(C(N)=O)CC1	9.45 µM	1.46 µM	0.128 µM	0.0547 µM	> 10 µM	> 16 µM	4.47 µM	> 40 µM	
C=CC(=O)Nc1cc(Nc2nccc(NC(=O)c3cccc(OC)c3)n2)c(OC)cc1N1CCN(C)CC1	1.59 µM	4.23 µM	0.147 µM	0.055 µM	> 10 µM	15.9 µM	6.45 µM	2.5 µM	
C=CC(=O)Nc1cc(Nc2nccc(NC(=O)c3ccc(C(F)(F)F)cc3)n2)c(OC)cc1N1CCN(C)CC1	9.2 µM	3.42 µM	0.152 µM	0.0279 µM	> 10 µM	9.2 µM	7.89 µM	19.4 µM	
C=CC(=O)Nc1cc(Nc2nccc(NC(=O)c3ccc(C(F)(F)F)cc3)n2)c(OC)cc1N1CCC(C(N)=O)CC1	> 20 µM	15.7 µM	0.127 µM	0.0653 µM					
C=CC(=O)Nc1cc(Nc2nccc(NC(=O)c3cccc4ccccc34)n2)c(OC)cc1N1CCN(C)CC1	7.75 µM	1.09 µM	0.134 µM	0.0333 µM	6.6 µM	10.6 µM	6.77 µM	18.9 µM	
C=CC(=O)Nc1cc(Nc2nccc(NC(=O)c3ccc(OC)c(OC)c3)n2)c(OC)cc1N(C)C	18.2 µM	2.15 µM	0.149 µM	0.0402 µM					
C=CC(=O)Nc1cc(Nc2nccc(NC(=O)c3ccccc3)n2)c(OC)cc1N1CCC(C(N)=O)CC1	15.5 µM	> 20 µM	0.181 µM	0.000587 µM					
C=CC(=O)Nc1cc(Nc2nccc(NC(=O)c3ccc(C(F)(F)F)cc3)n2)c(OC)cc1N(C)CCN(C)C	7.24 µM	3.26 µM	0.109 µM	0.0465 µM	8.03 µM	7.98 µM	9.88 µM	12.9 µM	
C=CC(=O)Nc1cc(Nc2nccc(NC(=O)c3ccccc3)n2)c(OC)cc1N(C)CCN(C)C	1.06 µM	1.34 µM	0.318 µM	0.143 µM	3.58 µM	> 16 µM	1.74 µM	15.1 µM	
